Measured values as given in patent US9513294B2, “Megastokes amino-triazolyl-BODIPY compounds and applications to live neuron staining and human serum albumin FA1 drug site probing” (National University of Singapore, priority 2012, dated 2016).
One block for each compound: values may come before it.

Legend:
[1] = Absorbance and fluorescence emission spectra (SpectraMax M2); format: physicochemical; conditions: for λmax Abs. (nm) / λmax Em. (nm): MKAC compound library; for λmax Abs. (nm) / λmax Absorp. (nm): absorbance maximum; for λmax Em. (nm) / λmax Emission (nm): fluorescence emission maximum; for λmax Absorp. (nm) / λmax Emission (nm): MKCA compound library
Summary of the method: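 Absorbance and emission maxima measured on a SpectraMax M2 spectrophotometer, which also gave quantum yield data; analysis in GraphPrism.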

[2] = Quantum yield measurements versus Acridine Yellow in EtOH; format: physicochemical; conditions: for φ (quantum yield): excitation 460 nm; for φ (%): quantum yield
Summary of the method: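 Fluorescence quantum yield is relative to Acridine Yellow in EtOH (Φ 0.47), with excitation at 460 nm. Integrated emission at 510–700 nm was corrected for absorbance at the excitation wavelength and for solvent refractive index.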

λmax Abs. (nm) [1]: 465 nm
λmax Em. (nm) [1]: 559 nm
φ (%) ([2]; MKAC compound library): 15.37%
Compound: COc1ccc(OC)c(CNC2=[N+]3C(=C(c4ccc(NC(C)=O)cc4)c4ccc(-n5cc(CO)nn5)n4[B-]3(F)F)C=C2)c1 [MKAC181-70]

λmax Abs. (nm) [1]: 467 nm
λmax Em. (nm) [1]: 575 nm
φ (%) ([2]; MKAC compound library): 2.72%
Compound: CCCc1cn(-c2ccc3n2[B-](F)(F)[N+]2=C(N(C)Cc4ccccc4)C=CC2=C3c2ccc(NC(C)=O)cc2)nn1 [MKAC195-48]

λmax Absorp. (nm) [1]: 464 nm
λmax Emission (nm) [1]: 566 nm
φ (%) ([2]; MKCA compound library): 19.35%
Compound: COc1ccc(OC)c(CNC2=[N+]3C(=C(c4ccc(NC(=O)CCl)cc4)c4ccc(-n5cc(C6CC6)nn5)n4[B-]3(F)F)C=C2)c1 [MKCA181-4]

λmax Absorp. ([1]; MK library, Table 5): 474 nm
λmax Emission ([1]; MK library, Table 5): 562 nm
φ (quantum yield) ([2]; MK library, Table 5): 2.36%
Compound: Cc1ccccc1CNC1=[N+]2C(=C(c3ccc(N)cc3)c3ccc(-n4cc(CC(C)C)nn4)n3[B-]2(F)F)C=C1 [MK101-43]

λmax Absorp. ([1]; MK library, Table 5): 473 nm
λmax Emission ([1]; MK library, Table 5): 563 nm
φ (quantum yield) ([2]; MK library, Table 5): 1.02%
Compound: CN(Cc1ccccc1)Cc1cn(-c2ccc3n2[B-](F)(F)[N+]2=C(NCc4cc(F)cc(F)c4)C=CC2=C3c2ccc(N)cc2)nn1 [MK412-18]

λmax Absorp. ([1]; MK library, Table 5): 474 nm
λmax Emission ([1]; MK library, Table 5): 565 nm
φ (quantum yield) ([2]; MK library, Table 5): 1.92%
Compound: Cc1ccccc1CNC1=[N+]2C(=C(c3ccc(N)cc3)c3ccc(-n4cc(CO)nn4)n3[B-]2(F)F)C=C1 [MK101-70]

λmax Absorp. ([1]; MK library, Table 5): 475 nm
λmax Emission ([1]; MK library, Table 5): 563 nm
φ (quantum yield) ([2]; MK library, Table 5): 2.40%
Compound: CCCCCC(O)c1cn(-c2ccc3n2[B-](F)(F)[N+]2=C(NCc4ccccc4C)C=CC2=C3c2ccc(N)cc2)nn1 (stereo not drawn) [MK101-69]

λmax Absorp. ([1]; BDC library, Table 2): 469 nm
λmax Emission ([1]; BDC library, Table 2): 556 nm
φ (quantum yield) ([2]; BDC library, Table 2): 0.42%
Compound: Cc1cccc(-c2cn(-c3ccc4n3[B-](F)(F)[N+]3=C(N5CCCCC5)C=CC3=C4c3ccc(N)cc3)nn2)c1 [BDC-45]

λmax Absorp. ([1]; MK library, Table 5): 473 nm
λmax Emission ([1]; MK library, Table 5): 565 nm
φ (quantum yield) ([2]; MK library, Table 5): 0.36%
Compound: CCCC(C)c1cn(-c2ccc3n2[B-](F)(F)[N+]2=C(NCc4cc(OC)ccc4OC)C=CC2=C3c2ccc(N)cc2)nn1 (stereo not drawn) [MK181-3]

λmax Abs. (nm) [1]: 465 nm
λmax Em. (nm) [1]: 564 nm
φ (%) ([2]; MKAC compound library): 13.98%
Compound: COc1ccc(OC)c(CNC2=[N+]3C(=C(c4ccc(NC(C)=O)cc4)c4ccc(-n5cc(CC6CCCCC6)nn5)n4[B-]3(F)F)C=C2)c1 [MKAC181-8]

λmax Absorp. ([1]; MK library, Table 5): 475 nm
λmax Emission ([1]; MK library, Table 5): 566 nm
φ (quantum yield) ([2]; MK library, Table 5): 0.37%
Compound: COc1ccc(OC)c(CNC2=[N+]3C(=C(c4ccc(N)cc4)c4ccc(-n5cc(CC(C)C)nn5)n4[B-]3(F)F)C=C2)c1 [MK181-43]

λmax Absorp. (nm) [1]: 467 nm
λmax Emission (nm) [1]: 563 nm
φ (%) ([2]; MKCA compound library): 36.25%
Compound: O=C(CCl)Nc1ccc(C2=C3C=CC(NCc4cc(F)cc(F)c4)=[N+]3[B-](F)(F)n3c2ccc3-n2cc(C3CC3)nn2)cc1 [MKCA412-4]

The remaining lines, values behind:

Compound: CC(=O)Nc1ccc(C2=C3C=CC(N4CCCCC4)=[N+]3[B-](F)(F)n3c2ccc3-n2cc(-c3ccc(C)cc3)nn2)cc1 [BDCAC-10]
λmax Absorp. ([1]; BDCAC library, Table 3): 464 nm
λmax Emission ([1]; BDCAC library, Table 3): 556 nm
φ (quantum yield) ([2]; BDCAC library, Table 3): 2.4%

Compound: CCCCc1cn(-c2ccc3n2[B-](F)(F)[N+]2=C(N4CCCCC4)C=CC2=C3c2ccc(NC(=O)CCl)cc2)nn1 [BDCCA-42]
λmax Absorp. ([1]; BDCCA library, Table 4): 467 nm
λmax Emission ([1]; BDCCA library, Table 4): 577 nm
φ (quantum yield) ([2]; BDCCA library, Table 4): 1.3%

Compound: CC1CN(C2=[N+]3C(=C(c4ccc(N)cc4)c4ccc(-n5cc(CO)nn5)n4[B-]3(F)F)C=C2)CC(C)O1 (stereo not drawn) [MK20-70]
λmax Absorp. ([1]; MK library, Table 5): 479 nm
λmax Emission ([1]; MK library, Table 5): 584 nm
φ (quantum yield) ([2]; MK library, Table 5): 0.18%

Compound: CC(=O)Nc1ccc(C2=C3C=CC(N4CCCCC4)=[N+]3[B-](F)(F)n3c2ccc3-n2cc(CCC(C)C)nn2)cc1 [BDCAC-36]
λmax Absorp. ([1]; BDCAC library, Table 3): 467 nm
λmax Emission ([1]; BDCAC library, Table 3): 585 nm
φ (quantum yield) ([2]; BDCAC library, Table 3): 0.8%

Compound: CC1CN(C2=[N+]3C(=C(c4ccc(N)cc4)c4ccc(-n5cc(C6CC6)nn5)n4[B-]3(F)F)C=C2)CC(C)O1 (stereo not drawn) [MK20-4]
λmax Absorp. ([1]; MK library, Table 5): 476 nm
λmax Emission ([1]; MK library, Table 5): 564 nm
φ (quantum yield) ([2]; MK library, Table 5): 0.50%

Compound: CC(=O)Nc1ccc(C2=C3C=CC(N4CCCCC4)=[N+]3[B-](F)(F)n3c2ccc3-n2cc(-c3ccc(OC(F)(F)F)cc3)nn2)cc1 [BDCAC-15]
λmax Absorp. ([1]; BDCAC library, Table 3): 463 nm
λmax Emission ([1]; BDCAC library, Table 3): 537 nm
φ (quantum yield) ([2]; BDCAC library, Table 3): 2.7%

Compound: CCCC(C)c1cn(-c2ccc3n2[B-](F)(F)[N+]2=C(N4CC(C)OC(C)C4)C=CC2=C3c2ccc(N)cc2)nn1 (stereo not drawn) [MK20-3]
λmax Absorp. ([1]; MK library, Table 5): 476 nm
λmax Emission ([1]; MK library, Table 5): 573 nm
φ (quantum yield) ([2]; MK library, Table 5): 0.10%

Compound: CCCC(C)c1cn(-c2ccc3n2[B-](F)(F)[N+]2=C(N4CCc5ccccc5C4)C=CC2=C3c2ccc(NC(=O)CCl)cc2)nn1 (stereo not drawn) [MKCA66-3]
λmax Absorp. (nm) [1]: 469 nm
λmax Emission (nm) [1]: 582 nm
φ (%) ([2]; MKCA compound library): 3.50%
